Assay [1] relates to N-MYC mRNA in H3122 cells. Description: N-MYC mRNA levels in H3122 cells (RT-PCR). In kind it is cell-based. How it is done: (§1) Five established NSCLC cell lines (i.e. H2228, H3122, A549, HOP62 and HOP92) were exposed to increasing doses of compound (1-1) (OncoEthix SA, Switzerland). Effect on cell viability was determined by the MTT assay after 72 h exposure. The growth inhibition (GI) 50% values were determined by GraphPad Prism 5.0 software. And protein levels were analyzed by Western Blot using commercial antibodies. RNA was extracted with the Qiagen RNAEasy kit and reverse-transcribed using the Superscript First-Strand Synthesis System for RT-PCR kit following manufacturer's instructions. RT-PCR was performed using Fast SYBR Green Master Mix on a StepOnePlus Real-Time PCR System.
Five established NSCLC cell lines, HOP62, HOP92, A549, H2228, and H3122 harboring different oncogenic mutations for KRAS, LKB1, TP53 and ALK (FIG. 19) were exposed to increasing doses of compound (1-1) (OncoEthix SA, Switzerland) for 72 h and cell proliferation was evaluated by MTT assays. […] Protein levels were analyzed by Western blot using commercial antibodies. For cell cycle analysis cells were stained with PI and analyzed using a FACScan flow cytometer after 24 h of treatment. […] Concomitant compound (1-1) combination studies were performed in cell lines exposed for 48 h to increasing doses of compound (1-1) alone or in combination with everolimus or crizotinib, and assessed using the Chou & Talalay method. […]

For assay [2], the system named is A549 cells. Briefly: MTT cell viability/proliferation assay, 72 h. In kind it is cell-based. How it is done:
as §1
(§2) Five established NSCLC cell lines, HOP62, HOP92, A549, H2228, and H3122 harboring different oncogenic mutations for KRAS, LKB1, TP53 and ALK (FIG. 19) were exposed to increasing doses of compound (1-1) (OncoEthix SA, Switzerland) for 72 h and cell proliferation was evaluated by MTT assays. Results represent the mean±95% CI of at least 3 independent experiments performed in triplicate. Protein levels were analyzed by Western blot using commercial antibodies. For cell cycle analysis cells were stained with PI and analyzed using a FACScan flow cytometer after 24 h of treatment. RT-PCR was performed using Fast SYBR Green Master Mix on a StepOnePlus Real-Time PCR System. Results represent the mean±SD of at least 2 independent experiments, where *p<0.05 versus control cells (0.1% DMSO), employing Anova followed by Dunnett's Multiple Comparison Test. Concomitant compound (1-1) combination studies were performed in cell lines exposed for 48 h to increasing doses of compound (1-1) alone or in combination with everolimus or crizotinib, and assessed using the Chou & Talalay method. Combination Index (CI) was determined by median effect plot analysis using CalcuSyn software. CI<1 synergy, CI=1 additivity and CI>1 antagonist effects. Results represent the median and range of 3 independent experiments performed in triplicate.

Assay [3] relates to H2228 cells. Description: MTT cell viability/proliferation assay, 72 h. In kind it is cell-based. The conditions noted are these: Homo sapiens, NCI-H2228, H2228 cells (EML4-ALK-positive), 72-h exposure. On the procedure: as §1, §2
The test system of assay [4] is H3122 cells. Description: MTT cell viability/proliferation assay, 72 h. The conditions noted are these: Homo sapiens, NCI-H3122, H3122 cells (EML4-ALK-positive), 72-h exposure. The class given is cell-based. How it is done:
as §1, §2

The subject of assay [5] is NSCLC cell lines HOP62, HOP92, A549, H2228, H3122. Briefly: MTT proliferation assay in NSCLC cell line panel. As to conditions: five NSCLC cell lines. The class given is cell-based. How it is done:
as §2
(In general: Tetrazolium dyes change colour on reduction, which living cells bring about.)

Assay [6] has as its system H2228 cells. Briefly: Concomitant combination with crizotinib (Chou & Talalay). In kind it is cell-based. The conditions noted are these: combined with crizotinib, 48 h concomitant exposure, CI<1 synergy, CI=1 additivity, CI>1 antagonist, called additive. On the procedure:
as §2

Assay [7] relates to NSCLC cells. Description: Cell cycle analysis (PI staining, flow cytometer). In kind it is cell-based. The conditions noted are these: 24 h exposure; dihydrate. On the procedure: as §2
For assay [8], the system named is C-MYC in HOP92 cells. Description: C-MYC mRNA and protein levels in HOP92 cells. The class given is cell-based. As to conditions: 500 nM, after 4 hours, maintained after 24 hours. On the procedure:
as §2

Assay [9] deals with N-MYC mRNA in HOP62 cells. Description: N-MYC mRNA levels in HOP62 cells (RT-PCR). The class given is cell-based. The conditions noted are these: 500 nM, after 4 hours, maintained after 24 hours. On the procedure: as §2
Assay [10] deals with STAT3. Description: Cell signaling pathways assessment (Western blot). In kind it is cell-based. As to conditions: down-regulation after 24 h and up to 72 h exposure. On the procedure:
as §1

The test system of assay [11] is H3122 tumor. Description: H3122 tumor growth in nude mice. In kind it is in vivo, male athymic NMRI nude mice. The conditions noted are these: gavage, continuous. On the procedure: 5.10^6 H3122 cells were injected in the flank of male athymic NMRI nude mice, and mice were randomized to 3 groups (8 mice/group) when tumor volume reach 100 mm^3; vehicle (PBS, once daily, oral continuous), Compound (1-1) (50 mg/kg/bidaily, gavage, continuous), or crizotinib (25 mg/kg/daily, gavage, continuous).

Assay [12] deals with C-MYC. Briefly: C-MYC protein and mRNA levels in NSCLC cell lines (Western blot, RT-PCR). The class given is cell-based. As to conditions: NSCLC cell lines (Example 7). On the procedure: as §1
(In western blotting, separated proteins are transferred to a membrane and probed.)

Assay [13] relates to A549 cells. Briefly: Concomitant combination with everolimus (Chou & Talalay). In kind it is cell-based. The conditions noted are these: 48 h concomitant. How it is done:
as §2

Assay [14] relates to H2228 cells. The description is as above. In kind it is cell-based. The conditions noted are these: 48 h concomitant. On the procedure: as §2
Assay [15] has as its system HOP92 cells. Described as above. As to conditions: 48 h concomitant. The class given is cell-based. On the procedure:
as §2

The test system of assay [16] is HOP62 cells. The description is as above. In kind it is cell-based. As to conditions: 48 h concomitant. On the procedure:
as §2

The structures appear in SMILES notation. Entries after “also recorded” stand apart in the source; their conditions may differ.

Regarding `Cc1sc2c(c1C)C(c1ccc(Cl)cc1)=N[C@@H](CC(=O)Nc1ccc(O)cc1)c1nnc(C)n1-2` [Compound (1-1), 2-[(6S)-4-(4-chlorophenyl)-2,3,9-trimethyl-6H-thienol[3,2-f]-[1,2,4]triazolo[4,3-a][1,4]diazepin-6-yl]-N-(4-hydroxyphenyl)acetamide dihydrate], the “N-MYC mRNA levels” value was “down-regulation” in [1] (EML4-ALK-positive H3122 cells (Example 7)); “rapid downregulation” in assay [1] (H3122 cells, 500 nM, after 4 hours, maintained after 24 hours); “rapid downregulation” in assay [9]. Moreover, in assay [2] (A549 cells with concurrent KRAS and LKB1 mutations), the “effects in A549 cells” value is recorded as “abrogate compound (1-1) effects”. Moreover, the GI50 (as a rule, the concentration that inhibits growth by half) in [2] (Homo sapiens, A549, EML4-ALK-negative (A49) cell line, 72 h exposure, MTT) is 432 nM; in assay [3], 629 nM; in assay [4] it was 627 nM; in assay [5] (72 h-exposure, read-out: GI50 values across the cell line panel), 100 to 700 nM. Besides, the “cytostatic effects in NSCLC cell lines” value in assay [5] (72 h) is recorded as “cytostatic effects in 4 out of 5 NSCLC cell lines”. For the same compound, the “Combination Index (CI)” value in assay [6] is given as 0.9. The “percentage of cells in S phase” value in assay [7] is “reduction in the percentage of cells in S phase; also recorded: reduction of the S phase cell fraction”. Besides, the “C-MYC mRNA and protein levels” value in assay [8] is “rapid downregulation”. The STAT3 regulation result in assay [10] is “transient upregulation of STATS with a subsequent down-regulation”. The “tumor growth in H3122 tumor bearing-mice” value in assay [11] (50 mg/kg/bidaily, vs vehicle, dihydrate) is “inhibited tumor growth to a similar extent as crizotinib; also recorded: slowed tumor progression”. In addition, the “C-MYC protein and mRNA levels” value in assay [12] is listed as “not altered”. Besides, the “combination effect with everolimus” value in assay [13], in [14], in assay [15] and in assay [16] was “additive/synergistic effects” throughout.
For `C[C@@H](Oc1cc(-c2cnn(C3CCNCC3)c2)cnc1N)c1c(Cl)ccc(F)c1Cl` [crizotinib, reference compound], the “tumor growth in H3122 tumor bearing-mice” value in assay [11] (25 mg/kg/daily) is listed as “inhibited tumor growth to a similar extent”.

The record behind these values is patent US9820992B2, “Method of treating non-small-cell lung cancer using pharmaceutical formulation containing thienotriazolodiazepine compounds” (ONCOETHIX GmbH, priority 2013, dated 2017).
